Results as given in patent US20230172897A1, “METHODS OF TREATING BREAST CANCERS WITH SELECTIVE ANDROGEN RECEPTOR MODULATORS AND ADDITIONAL THERAPEUTIC AGENTS” (VERU, INC., priority 2021, published 2023).
Where “and” joins values, the source holds several entries; their conditions need not be identical. Identical values can stand only once.

Tests used:
[1] = test system: JNK; assay: Phospho MAPK array of MCF-7-AR tumors; parameters: species or system mice; details: mouse, in vivo
Experimental: Protein from MCF-7-AR tumors that were treated with vehicle or compound of Formula VIII were extracted and incubated with phospho MAPK array to determine the effect of compound of Formula VIII on phosphorylation of various kinases.

[2] = test system: metastatic or locally advanced ER+/AR+ breast cancer; assay: Phase 2 clinical trial (G200802), 9 mg or 18 mg daily; type: in vivo, postmenopausal women; details: for Best overall objective tumor response: CR (number) / Best overall objective tumor response: PR (number): all evaluable patients; for Average rPFS / Clinical Benefit Response Rate / Clinical Benefit Responses (CR + PR + SD) / Median rPFS / Objective Response Rate / Objective Responses (CR + PR): measurable disease at baseline
Experimental: Each dose arm was treated independently, and each assessed for efficacy using Simon's two-stage (optimal) design (Simon R. Optimal two-stage designs for Phase 2 clinical trials. Controlled Clinical Trials 1989; 10: 1-10). Subjects were randomized in a 1:1 fashion to one of the two dose arms.
Randomization was stratified by subjects presenting with bone only metastases and all other subjects, and further by setting of immediately preceding therapy (adjuvant setting or metastatic setting) in order to balance the proportion of subjects with these presenting features in each dose arm.
Thirty-six to eighty-eight (36-88) subjects with centrally confirmed AR+ who received at least one dose of study drug (evaluable subjects) were needed for primary efficacy analysis purposes and were a subset of the full analysis set (FAS). Fifty patients in the 9 mg cohort and 52 patients in the 18 mg cohort met these criteria. […] Other statistical parameters that were part of the sample size calculation are α=0.025 (one-sided) and power=90%. The first stage in each study arm was assessed among the first 18 evaluable subjects. Greater than 3/18 subjects achieved CB (defined as CR, PR, or SD) at week 24, and both arms proceeded to the second stage of recruitment up to a total of 44 evaluable subjects per arm. Otherwise, the arm would have been discontinued for lack of efficacy. Statistical significance, i.e., rejection of the null hypothesis of an unacceptably low CBR of ≤10% in favor of the alternative hypothesis that indicated the higher rate, ≥30%, was more likely, would be declared if at least 9/44 subjects achieved CB at week 24 in that arm.
These patients on the study had measurable disease at baseline and an AR staining prior to entry into the study. The radiographic imaging in this patient population was done every 12 weeks (2.7 months). Therefore, the minimum radiographic progression free survival (rPFS) that could be determined is approximately 2.7 months. 90% of the patients in the study had previously received non-endocrine based chemotherapy. The patients in this study had failed an average of 2 prior treatment lines for metastatic disease (range=0-5). FIG. 43 provides a scatterplot for the patients in this study with regard to the correlation between % AR-positive staining at baseline (% AR staining) and rPFS. […] However, in patients with greater than or equal to 40% AR-positive staining, the rPFS was delayed to variable extents (scatter plot pattern) in many to most cases. A positive correlation between rPFS and % AR staining was seen above the threshold of 40% AR staining. To explore this positive correlation further, several subgroups of AR % staining were defined and analyzed for metrics of efficacy, as shown in Table 14.

C[C@](O)(COc1ccc(C#N)cc1)C(=O)Nc1ccc(C#N)c(Cl)c1 [Formula VIII, (S)—N-(3-chloro-4-cyanophenyl)-3-(4-cyanophenoxy)-2-hydroxy-2-methylpropanamide]
JNK phosphorylation in MCF-7-AR tumors [1]: upregulated

C[C@](O)(COc1ccc(C#N)cc1)C(=O)Nc1ccc(C#N)c(C(F)(F)F)c1 [Formula IX, (S)—N-(4-Cyano-3-(trifluoromethyl)phenyl)-3-(4-cyanophenoxy)-2-hydroxy-2-methylpropanamide]
clinical benefit rate at 6 months ([2]; 9 mg): 32% | Quality of life assessments ([2]; 9 mg and 18 mg cohorts): significant improvement from baseline | tolerability ([2]; 9 mg and 18 mg doses): well tolerated | response rate in patients previously treated with palbociclib and failed ([2]; 9 mg arm, 3 patients): 33% | Median duration of clinical benefit ([2]; 9 mg group): not reached | Best overall objective tumor response: CR (number) ([2]; 9 mg, post-hoc): 3 | Best overall objective tumor response: PR (number) ([2]; 9 mg, post-hoc): 8 | Average rPFS ([2]; 9 mg, % AR staining 20-40): 2.51 months | Clinical Benefit Response Rate ([2]; 9 mg, % AR staining 20-40): 22% | Clinical Benefit Responses (CR + PR + SD) ([2]; 9 mg, % AR staining 20-40): 2 | Median rPFS ([2]; 9 mg, % AR staining 20-40): 2.77 months | Objective Response Rate ([2]; 9 mg, % AR staining 20-40): 0% | Objective Responses (CR + PR) ([2]; 9 mg, % AR staining 20-40): 0 | Average rPFS ([2]; 9 mg, % AR staining 40-60): 4.62 months | Clinical Benefit Response Rate ([2]; 9 mg, % AR staining 40-60): 86% | Clinical Benefit Responses (CR + PR + SD) ([2]; 9 mg, % AR staining 40-60): 6 | Median rPFS ([2]; 9 mg, % AR staining 40-60): 2.93 months | Objective Response Rate ([2]; 9 mg, % AR staining 40-60): 43% | Objective Responses (CR + PR) ([2]; 9 mg, % AR staining 40-60): 3 | Average rPFS ([2]; 9 mg, % AR staining 60-80): 8.10 months | Clinical Benefit Response Rate ([2]; 9 mg, % AR staining 60-80): 80% | Clinical Benefit Responses (CR + PR + SD) ([2]; 9 mg, % AR staining 60-80): 8 | Median rPFS ([2]; 9 mg, % AR staining 60-80): 5.60 months | Objective Response Rate ([2]; 9 mg, % AR staining 60-80): 60% | Objective Responses (CR + PR) ([2]; 9 mg, % AR staining 60-80): 6 | Average rPFS ([2]; 9 mg, % AR staining <20): 2.83 months | Clinical Benefit Response Rate ([2]; 9 mg, % AR staining <20): 15% | Clinical Benefit Responses (CR + PR + SD) ([2]; 9 mg, % AR staining <20): 2 | Median rPFS ([2]; 9 mg, % AR staining <20): 2.70 months | Objective Response Rate ([2]; 9 mg, % AR staining <20): 0% | Objective Responses (CR + PR) ([2]; 9 mg, % AR staining <20): 0 | Average rPFS ([2]; 9 mg, % AR staining <40): 2.7 months and 2.70 months | Clinical Benefit Response Rate ([2]; 9 mg, % AR staining <40): 18% | Clinical Benefit Responses (CR + PR + SD) ([2]; 9 mg, % AR staining <40): 4 | Median rPFS ([2]; 9 mg, % AR staining <40): 2.72 months | Objective Responses (CR + PR) ([2]; 9 mg, % AR staining <40): 0 | Average rPFS ([2]; 9 mg, % AR staining <60): 3.17 months | Clinical Benefit Response Rate ([2]; 9 mg, % AR staining <60): 34% | Clinical Benefit Responses (CR + PR + SD) ([2]; 9 mg, % AR staining <60): 10 | Median rPFS ([2]; 9 mg, % AR staining <60): 2.77 months | Objective Response Rate ([2]; 9 mg, % AR staining <60): 10% | Objective Responses (CR + PR) ([2]; 9 mg, % AR staining <60): 3 | Average rPFS ([2]; 9 mg, % AR staining >40): 7.15 months | Clinical Benefit Response Rate ([2]; 9 mg, % AR staining >40): 80% | Clinical Benefit Responses (CR + PR + SD) ([2]; 9 mg, % AR staining >40): 20 | Median rPFS ([2]; 9 mg, % AR staining >40): 5.47 months | Objective Responses (CR + PR) ([2]; 9 mg, % AR staining >40): 12 | Average rPFS ([2]; 9 mg, % AR staining >60): 8.14 months | Clinical Benefit Response Rate ([2]; 9 mg, % AR staining >60): 78% | Clinical Benefit Responses (CR + PR + SD) ([2]; 9 mg, % AR staining >60): 14 | Median rPFS ([2]; 9 mg, % AR staining >60): 5.60 months | Objective Response Rate ([2]; 9 mg, % AR staining >60): 50% | Objective Responses (CR + PR) ([2]; 9 mg, % AR staining >60): 9 | Average rPFS ([2]; 9 mg, % AR staining >80): 8.18 months | Clinical Benefit Response Rate ([2]; 9 mg, % AR staining >80): 75% | Clinical Benefit Responses (CR + PR + SD) ([2]; 9 mg, % AR staining >80): 6 | Median rPFS ([2]; 9 mg, % AR staining >80): 6.23 months | Objective Response Rate ([2]; 9 mg, % AR staining >80): 38% | Objective Responses (CR + PR) ([2]; 9 mg, % AR staining >80): 3 | median duration of response in patients with an objective tumor response ([2]; 9 mg, post-hoc): 8.18 months | responders with duration of response >12 months ([2]; 9 mg, post-hoc): 25% | responders with duration of response ≥6 months ([2]; 9 mg, post-hoc): 67% | clinical benefit rate at 6 months ([2]; 18 mg): 29% | response rate in patients previously treated with palbociclib and failed ([2]; 18 mg arm, 6 patients): 33% | Median duration of clinical benefit ([2]; 18 mg group): 14.1 months | Best overall objective tumor response: CR (number) ([2]; 18 mg, post-hoc): 1 | Best overall objective tumor response: PR (number) ([2]; 18 mg, post-hoc): 5 | patients with an objective response after progression on estrogen blocking agents and CDK 4/6 inhibitor ([2]; AR nuclei staining ≥40% (7 patients), post-hoc): 3 patients | objective response rate after progression on estrogen blocking agents and CDK 4/6 inhibitor ([2]; AR nuclei staining ≥60% subgroup (4 patients)): 75% | first stage: subjects achieving CB at week 24 ([2]; both arms (9 mg, 18 mg), first 18 evaluable subjects): Greater than 3/18
